The values that follow come from patent US10821115B2, “Compounds that inhibit Mcl-1 protein” (priority 2017, dated 2020).

Each structure is given as a SMILES string. Like-named read-outs stand apart in the source and are kept apart here.

The target in test [1] is recombinant human Mcl-1 (residues 171-327) / Bim interaction (Homo sapiens (Human), UniProt Q07820). Briefly: biochemical. To be noted: read-out: Mcl-1 HTRF IC50. Format: binding.
The subject of test [2] is human multiple myeloma cell line, OPM-2. Briefly: Cell viability assay (OPM-2 10 FBS), CellTiter-Glo. Format: cell-based. In a few lines: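 Cells were seeded at 3000 cells/well in RPMI 1640 with 10% FBS and exposed to serially diluted compounds for 16 h at 37 °C, 5% CO2.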
[3] abbreviates: TR-FRET, Mcl-1(171-327) / biotin-Bim (51-76).
[4] abbreviates: Homo sapiens, OPM-2, 16 h, read-out: OPM-2 10% FBS IC50 IP, OPM-2 cells, 10% FBS, 16 h, CellTiter-Glo.
The mark [5] stands for this setting: 0.1 nM Mcl-1(171-327), 0.05 nM biotin-Bim (51-76).
[6] abbreviates: Homo sapiens, OPM-2, 16 h, read-out: OPM-2 10% FBS IC50 IP, OPM-2 cells, 10% FBS, 16 h incubation.
Where [7] appears, read: read-out: OPM-2 10% FBS IC50 IP, OPM-2 cells, 10% FBS, 16 h, CellTiter-Glo.

Chain of recombinant human Mcl-1 (residues 171-327) / Bim interaction (Q07820 171-327): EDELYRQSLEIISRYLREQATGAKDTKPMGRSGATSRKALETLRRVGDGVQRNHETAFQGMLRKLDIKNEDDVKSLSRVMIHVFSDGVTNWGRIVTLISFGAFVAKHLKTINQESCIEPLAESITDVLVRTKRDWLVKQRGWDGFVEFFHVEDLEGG

As for `CC[C@@H]1CCCC[C@@]2(COCC(=O)O2)[C@@H]2CC[C@H]2CN2C[C@@]3(CCCc4cc(Cl)ccc43)COc3ccc(cc32)C(=O)NS1(=O)=O` [Example 100043, (2S,3′R,6′R,12′R,22′S)-6″-chloro-12′-ethyl-3″,4″-dihydro-2″H,6H,15′H-dispiro[1,4-dioxane-2,7′-[20]oxa[13]thia[1,14]diazatetracyclo [14.7.2.0~3,6~.0~19,24~]pentacosa[16,18,24]triene-22′,1″-naphthalene]-6,15′-dione 13′,13′-dioxide], the IC50 in test [1] (setting [3]) turned out to be 1.67 nM; in test [2] (setting [4]) it was 7280 nM.

In the case of `CCO[C@@]1(CN2CCN3CCOC[C@@H]3C2)/C=C/C[C@H](C)[C@@H](C)S(=O)(=O)NC(=O)c2ccc3c(c2)N(C[C@@H]2CC[C@H]21)C[C@@]1(CCCc2cc(Cl)ccc21)CO3` [Example 101, (1S,3′R,6′R,7′S,8′E,11′S,12′R)-6-chloro-7′-ethoxy-7′-((9aS)-hexahydropyrazino[2,1-c][1,4]oxazin-8(1H)-ylmethyl)-11′,12′-dimethyl-3,4-dihydro-2H,15′H-spiro[naphthalene-1,22′-[20]oxa[13]thia[1,14]diazatetracyclo [14.7.2.0~3,6~.0~19,24~]pentacosa[8,16,18,24]tetraen]-15′-one 13′,13′-dioxide], the results for the IC50 in test [1] (setting [5]) and in test [2] (setting [6]) were 0.196 nM and 263 nM, respectively.

Consider `CO[C@@]1(C[C@@H](O)C2CC2)/C=C/C[C@H](C)[C@@H](C)S(=O)(=O)NC(=O)c2ccc3c(c2)N(C[C@@H]2CC[C@H]21)C[C@@]1(CCCc2cc(Cl)ccc21)CO3` (racemic) [Example 100437, (1S,3′R,6′R,7′S,8′E,11′S,12′R)-6-chloro-7′-((2R)-2-cyclopropyl-2-hydroxyethyl)-7′-methoxy-11′,12′-dimethyl-3,4-dihydro-2H,15′H-spiro[naphthalene-1,22′-[20]oxa[13]thia[1,14]diazatetracyclo [14.7.2.0~3,6~.0~19,24~]pentacosa[8,16,18,24]tetraen]-15′-one 13′,13′-dioxide], for which the IC50 in test [1] (setting [3]) came to 0.073 nM; in test [2] (setting [4]) it was 531 nM.

On to `CO[C@@]1(C[C@@H](O)C2CC2)/C=C/C[C@H](C)[C@@H](C)S(=O)(=O)NC(=O)c2ccc3c(c2)N(C[C@@H]2CC[C@H]21)C[C@@]1(CCCc2cc(Cl)ccc21)CO3` (single isomer, unassigned) [Example 100460], for which the IC50 in test [1] (setting [3]) came to 0.095 nM; in test [2] (setting [4]), 433 nM.

As for `CO[C@@]1(C[C@@H](O)C2CC2)/C=C/C[C@H](C)[C@@H](C)S(=O)(=O)NC(=O)c2ccc3c(c2)N(C[C@@H]2CC[C@H]21)C[C@@]1(CCCc2cc(Cl)ccc21)CO3` (single isomer, unassigned) [Example 100461], the results for the IC50 in test [1] (setting [3]) and in test [2] (setting [7]) were 0.042 nM and 382 nM, respectively.

For `CO[C@]1(CN2CCc3ncncc3C2)/C=C/C[C@H](C)[C@@H](C)S(=O)(=O)NC(=O)c2ccc3c(c2)N(C[C@@H]2CC[C@H]21)C[C@@]1(CCCc2cc(Cl)ccc21)CO3` [Example 222, (1S,3′R,6′R,7′R,8′E,11′S,12′R)-6-chloro-7′-(7,8-dihydropyrido[4,3-d]pyrimidin-6(5H)-ylmethyl)-7′-methoxy-11′,12′-dimethyl-3,4-dihydro-2H,15′H-spiro[naphthalene-1,22′-[20]oxa[13]thia[1,14]diazatetracyclo [14.7.2.0~3,6~.0~19,24~]pentacosa[8,16,18,24]tetraen]-15′-one 13′,13′-dioxide], the figures for the IC50 in test [1] (setting [5]) and in test [2] (setting [6]) were 0.08 nM and 118 nM, respectively.

As for `CCCO[C@]1(CN2CCN3CCCC[C@@H]3C2)/C=C/C[C@H](C)[C@@H](C)S(=O)(=O)NC(=O)c2ccc3c(c2)N(C[C@@H]2CC[C@H]21)C[C@@]1(CCCc2cc(Cl)ccc21)CO3` [Example 353, (1S,3′R,6′R,7′R,8′E,11′S,12′R)-6-chloro-11′,12′-dimethyl-7′-((9aR)-octahydro-2H-pyrido[1,2-a]pyrazin-2-ylmethyl)-7′-propoxy-3,4-dihydro-2H,15′H-spiro[naphthalene-1,22′-[20]oxa[13]thia[1,14]diazatetracyclo [14.7.2.0~3,6~.0~19,24~]pentacosa[8,16,18,24]tetraen]-15′-one 13′,13′-dioxide], the IC50 in test [1] (setting [5]) amounted to 0.135 nM; in test [2] (read-out: OPM-2 10% FBS IC50 IP, OPM-2 cells, 10% FBS, 16 h incubation), 186 nM.

On to `CO[C@@]1(CN2CCc3ccccc3C2)/C=C/C[C@H](C)[C@@H](C)S(=O)(=O)NC(=O)c2ccc3c(c2)N(C[C@@H]2CC[C@H]21)C[C@@]1(CCCc2cc(Cl)ccc21)CO3` [Example 148, (1S,3′R,6′R,7′S,8′E,11′S,12′R)-6-chloro-7′-(3,4-dihydro-2(1H)-isoquinolinylmethyl)-7′-methoxy-11′,12′-dimethyl-3,4-dihydro-2H,15′H-spiro[naphthalene-1,22′-[20]oxa[13]thia[1,14]diazatetracyclo [14.7.2.0~3,6~.0~19,24~]pentacosa[8,16,18,24]tetraen]-15′-one 13′,13′-dioxide], for which the IC50 in test [1] (setting [5]) stood at 1.2 nM; in test [2] (setting [6]), 1610 nM.

As to `CO[C@]1(CN2CCN(C3CC3)CC2)/C=C/C[C@H](C)[C@@H](C)S(=O)(=O)NC(=O)c2ccc3c(c2)N(C[C@@H]2CC[C@H]21)C[C@@]1(CCCc2cc(Cl)ccc21)CO3` [Example 91, (1S,3′R,6′R,7′R,8′E,11′S,12′R)-6-chloro-7′-((4-cyclopropyl-1-piperazinyl)methyl)-7′-methoxy-11′,12′-dimethyl-3,4-dihydro-2H,15′H-spiro[naphthalene-1,22′-[20]oxa[13]thia[1,14]diazatetracyclo [14.7.2.0~3,6~.0~19,24~]pentacosa[8,16,18,24]tetraen]-15′-one 13′,13′-dioxide], the IC50 in test [1] (setting [5]) was 0.203 nM; in test [2] (setting [6]), 559 nM.

For `C#C[C@]1(O)/C=C/C[C@H](C)[C@@H](C)S(=O)(=O)NC(=O)c2ccc3c(c2)N(C[C@@H]2CC[C@H]21)C[C@@]1(CCCc2cc(Cl)ccc21)CO3` [Example 100244, (1S,3′R,6′R,7′S,8′E,11′S,12′R)-6-chloro-7′-ethynyl-7′-hydroxy-11′,12′-dimethyl-3,4-dihydro-2H,15′H-spiro[naphthalene-1,22′-[20]oxa[13]thia[1,14]diazatetracyclo [14.7.2.0~3,6~.0~19,24~]pentacosa[8,16,18,24]tetraen]-15′-one 13′,13′-dioxide], the IC50 is 0.182 nM in test [1] (setting [3]) and 49 nM in test [2] (setting [4]).

With `CO[C@@]1(CS(=O)(=O)C(C)C)/C=C/C[C@H](C)[C@@H](C)S(=O)(=O)NC(=O)c2ccc3c(c2)N(C[C@@H]2CC[C@H]21)C[C@@]1(CCCc2cc(Cl)ccc21)CO3` [Example 100316, (1S,3′R,6′R,7′S,8′E,11′S,12′R)-6-chloro-7′-methoxy-11′,12′-dimethyl-7′-((2-propanylsulfonyl)methyl)-3,4-dihydro-2H,15′H-spiro[naphthalene-1,22′-[20]oxa[13]thia[1,14]diazatetracyclo [14.7.2.0~3,6~.0~19,24~]pentacosa[8,16,18,24]tetraen]-15′-one 13′,13′-dioxide], the IC50 worked out at 0.276 nM in test [1] (setting [3]) and 375 nM in test [2] (setting [7]).

As to `C[C@@H]1[C@@H](C)CCC[C@@](O)(CS(=O)(=O)N(C)C)[C@@H]2CC[C@H]2CN2C[C@@]3(CCCc4cc(Cl)ccc43)COc3ccc(cc32)C(=O)NS1(=O)=O` [Example 100099, 1-((1S,3′R,6′R,7′S,11′S,12′R)-6-chloro-7′-hydroxy-11′,12′-dimethyl-13′,13′-dioxido-15′-oxo-3,4-dihydro-2H-spiro[naphthalene-1,22′-[20]oxa[13]thia[1,14]diazatetracyclo [14.7.2.0~3,6~.0~19,24~]pentacosa[16,18,24]trien]-7′-yl)-N,N-dimethylmethanesulfonamide], the values for the IC50 in test [1] and in test [2] (setting [7]) were 0.659 nM and 349 nM, respectively.

In the case of `CO[C@@]1(CN2CC(N3CCOCC3)C2)/C=C/C[C@H](C)[C@@H](C)S(=O)(=O)NC(=O)c2ccc3c(c2)N(C[C@@H]2CC[C@H]21)C[C@@]1(CCCc2cc(Cl)ccc21)CO3` [Example 258, (1S,3′R,6′R,7′S,8′E,11′S,12′R)-6-chloro-7′-methoxy-11′,12′-dimethyl-7′-((3-(4-morpholinyl)-1-azetidinyl)methyl)-3,4-dihydro-2H,15′H-spiro[naphthalene-1,22′-[20]oxa[13]thia[1,14]diazatetracyclo [14.7.2.0~3,6~.0~19,24~]pentacosa[8,16,18,24]tetraen]-15′-one 13′,13′-dioxide], the IC50 in test [1] (setting [5]) was 0.069 nM; in test [2] (setting [6]), 95 nM.

In the case of `C[C@@H]1[C@@H](C)CCC[C@@](O)(CS(=O)(=O)N(C)C(C)(C)C)[C@@H]2CC[C@H]2CN2C[C@@]3(CCCc4cc(Cl)ccc43)COc3ccc(cc32)C(=O)NS1(=O)=O` [Example 100169, 1-((1S,3′R,6′R,7′S,11′S,12′R)-6-chloro-7′-hydroxy-11′,12′-dimethyl-13′,13′-dioxido-15′-oxo-3,4-dihydro-2H-spiro[naphthalene-1,22′-[20]oxa[13]thia[1,14]diazatetracyclo [14.7.2.0~3,6~.0~19,24~]pentacosa[16,18,24]trien]-7′-yl)-N-methyl-N-(2-methyl-2-propanyl)methanesulfonamide], the IC50 in test [1] (setting [3]) came to 4.83 nM; in test [2] (setting [7]), 2270 nM.

`C[C@@H]1[C@@H](C)CCC[C@](CO)(OCCN2CCOCC2)[C@@H]2CC[C@H]2CN2C[C@@]3(CCCc4cc(Cl)ccc43)COc3ccc(cc32)C(=O)NS1(=O)=O` [Example 100284, (1S,3′R,6′R,7′S,11′S,12′R)-6-chloro-7′-(hydroxymethyl)-11′,12′-dimethyl-7′-(2-(4-morpholinyl)ethoxy)-3,4-dihydro-2H,15′H-spiro[naphthalene-1,22′-[20]oxa[13]thia[1,14]diazatetracyclo [14.7.2.0~3,6~.0~19,24~]pentacosa[16,18,24]trien]-15′-one 13′,13′-dioxide]: the IC50 in test [1] (setting [3]) worked out at 0.285 nM; in test [2] (setting [7]), 396 nM.
